Calls of active or inactive are those of the source. No rule for the calls is given here.
Assays:
[1] = confirmation, H37Rv, purified and synthesized compounds, set 4 (AID 504860); conditions: M. tuberculosis H37Rv growth inhibition, glycerol-free medium; at 100 µM (top of the series)
[2] = test system: M. tuberculosis H37Rv growth inhibition, glycerol-free medium; assay: as above; conditions: for IC50: measured here: growth inhibition IC50

SMILES: COc1cccc(NC(=O)CSc2nc3ccccc3c(=O)[nH]2)c1
- inhibition [1]: 4.59% (inactive)

SMILES: O=C(CSc1ccccn1)NC1CCCCC1
- inhibition [1]: 6.13% (inactive)

SMILES: CCSc1nc2ccccc2c(=O)[nH]1
- inhibition [1]: 10.8% (inactive)

SMILES: Nc1cc(=O)[nH]c(SCC(=O)NC2CCCCC2)n1
- inhibition [1]: -0.72% (inactive)

SMILES: COC(=O)C(C)Oc1ccc(Cc2ncc(C(F)(F)F)cc2Cl)cc1 (stereo not drawn)
- IC90 [2]: 5.63 µM
- IC50 [2]: 3.62 µM

SMILES: CC(C)CCNC(=O)CSc1nc2ccccc2c(=O)[nH]1
- IC90 [2]: 0.21 µM
- IC50 [2]: < 0.01 µM

SMILES: CCC(Sc1nc2ccccc2c(=O)[nH]1)C(=O)Nc1cccc(OC)c1 (stereo not drawn)
- inhibition [1]: 14.3% (inactive)

SMILES: O=c1[nH]c(=S)[nH]c2ccccc12
- inhibition [1]: 2.16% (inactive)

SMILES: CN(C(=O)CSc1nc2ccccc2c(=O)[nH]1)C1CCCCC1
- inhibition [1]: 9.68% (inactive)

SMILES: Cc1nc(SCC(=O)NCCC(C)C)[nH]c(=O)c1C
- IC90 [2]: 13.3 µM
- IC50 [2]: 8.78 µM

SMILES: Cc1[nH]c(=S)[nH]c(=O)c1C
- inhibition [1]: 6.28% (inactive)

SMILES: Cc1cc(C)n2nc(N)c(N=Nc3ccccc3)c2n1
- IC90 [2]: 6.75 µM
- IC50 [2]: 4.45 µM

SMILES: CC[N+](C)(CC)CCCCOc1ccc2c(c1)C(=O)c1cc(OCCCC[N+](C)(CC)CC)ccc1-2
- IC90 [2]: 3.06 µM
- IC50 [2]: 2.14 µM

SMILES: CCOC(=O)CSc1nc(C)c(C)c(=O)[nH]1
- inhibition [1]: 8.77% (inactive)

SMILES: O=C(CSc1nc2c(c(=O)[nH]1)CCC2)NC1CCCCC1
- IC90 [2]: < 0.01 µM
- IC50 [2]: < 0.01 µM

SMILES: Cc1nc(SCC(=O)N(C)c2ccccc2)[nH]c(=O)c1C
- inhibition [1]: 6.73% (inactive)

SMILES: O=C(CSc1nc2ccccc2c(=O)[nH]1)NCc1ccc(Cl)cc1
- IC90 [2]: 1.58 µM
- IC50 [2]: 1.07 µM

SMILES: CCSc1nc(C)c(C)c(=O)[nH]1
- inhibition [1]: 2.48% (inactive)

SMILES: Cc1cc(=O)[nH]c(SCC(=O)NC2CCCCC2)n1
- inhibition [1]: -0.61% (inactive)

SMILES: O=C(CSc1nccc(=O)[nH]1)NC1CCCCC1
- inhibition [1]: 7.67% (inactive)

SMILES: O=c1[nH]c(SCc2ccccc2Cl)nc2c1CCCC2
- inhibition [1]: 9.5% (inactive)

SMILES: COc1ccc(NC(=O)CSc2nc3ccccc3c(=O)[nH]2)cc1
- inhibition [1]: 11.4% (inactive)

SMILES: CCC(Sc1nc2c(c(=O)[nH]1)CCC2)C(=O)Nc1cccc(OC)c1 (stereo not drawn)
- inhibition [1]: -0.78% (inactive)

SMILES: O=C(CSc1ncccn1)NC1CCCCC1
- inhibition [1]: 0.1% (inactive)

SMILES: CC(C)NC(=O)CSc1nc2ccccc2c(=O)[nH]1
- IC90 [2]: 19.3 µM
- IC50 [2]: 11.5 µM

SMILES: Cc1ccc(NC(=O)COC(=O)CCc2c[nH]c3ccccc23)cc1[N+](=O)[O-]
- IC90 [2]: 7.41 µM
- IC50 [2]: 3.2 µM

SMILES: Cc1c[nH]c(=S)[nH]c1=O
- inhibition [1]: 2.03% (inactive)

SMILES: CN(C)C(=O)CSc1nc2ccccc2c(=O)[nH]1
- inhibition [1]: 9.4% (inactive)

SMILES: CCOC1OC(=O)C(Cl)=C1Nc1ccccc1C (stereo not drawn)
- IC90 [2]: 9.47 µM
- IC50 [2]: 3.2 µM

SMILES: O=C(CSc1nc2ccccc2c(=O)[nH]1)NC1CCCC1
- IC90 [2]: 0.85 µM
- IC50 [2]: 0.43 µM

SMILES: CCOc1ccc(-c2cc(C)[n+](CCc3ccc(OC)c(OC)c3)c(-c3ccc(OCC)cc3)c2)cc1
- IC90 [2]: 1.63 µM
- IC50 [2]: 1.01 µM

SMILES: CN1CCC(NC(=O)CSc2nc3ccccc3c(=O)[nH]2)CC1
- inhibition [1]: 8.01% (inactive)

SMILES: Cc1cnc(SCC(=O)NC2CCCCC2)[nH]c1=O
- inhibition [1]: 3.92% (inactive)

SMILES: CC(Sc1nc2ccccc2c(=O)[nH]1)C(=O)NC1CCCCC1 (stereo not drawn)
- inhibition [1]: 6.58% (inactive)

SMILES: O=C(CSc1nc2c(c(=O)[nH]1)CCCC2)NC1CCCCC1
- IC90 [2]: < 0.01 µM
- IC50 [2]: < 0.01 µM

SMILES: Cc1nc(SCC(=O)NC2CCCC2)[nH]c(=O)c1C
- IC90 [2]: 15.6 µM
- IC50 [2]: 9.11 µM

SMILES: CCC(Sc1nc2ccccc2c(=O)[nH]1)C(=O)NC1CCCCC1 (stereo not drawn)
- inhibition [1]: 3.23% (inactive)

SMILES: Cc1cccc(/C=C/C(=O)c2ccc([N+](=O)[O-])o2)c1
- IC90 [2]: 2.22 µM
- IC50 [2]: 1.46 µM

SMILES: NC(=O)CSc1nc2ccccc2c(=O)[nH]1
- inhibition [1]: 10.4% (inactive)

SMILES: Cc1nc(SCc2ccccc2Cl)[nH]c(=O)c1C
- inhibition [1]: 6.97% (inactive)

SMILES: Cc1cccc(-c2oc3ccc(-c4ccc5c(c4)OCO5)cc3c2C#Cc2cncn2C)c1
- IC90 [2]: 3.08 µM
- IC50 [2]: 2.5 µM

SMILES: COC(=O)c1ccc(CNc2c(N3CCCC3)c(=O)c2=O)cc1
- inhibition [1]: 4.83% (inactive)

SMILES: c1ccc(/N=C2\N=C(Nc3ccccn3)c3ccccc32)nc1
- IC90 [2]: 2.46 µM
- IC50 [2]: 1.68 µM

SMILES: CC1CCN(C(=O)CSc2nc3ccccc3c(=O)[nH]2)CC1
- inhibition [1]: 8.81% (inactive)

SMILES: Cc1nc(SCC(N)=O)[nH]c(=O)c1C
- inhibition [1]: 4.67% (inactive)

SMILES: O=C(CSc1nc2ccccc2c(=O)[nH]1)N1CCOCC1
- inhibition [1]: 11.1% (inactive)

SMILES: Cc1cc(Br)ccc1NC(=O)c1cnc(N2CCN(c3ccccn3)CC2)c2ccccc12
- IC50 [2]: 11.4 µM

SMILES: Cn1c(SCC(=O)NC2CCCCC2)nc2ccccc2c1=O
- inhibition [1]: 6.07% (inactive)

SMILES: CC(C)CCNC(=O)CSc1nc2c(c(=O)[nH]1)CCC2
- IC90 [2]: 2.69 µM
- IC50 [2]: 1.68 µM

SMILES: CNC(=O)CSc1nc2ccccc2c(=O)[nH]1
- IC90 [2]: 99.1 µM
- IC50 [2]: > 68.7 µM

SMILES: COc1cccc(NC(=O)CSc2nc3c(c(=O)[nH]2)CCC3)c1
- inhibition [1]: -4.12% (inactive)

SMILES: O=C(CSc1nc2ccccc2c(=O)[nH]1)NC1CCCCC1
- IC90 [2]: 0.52 µM
- IC50 [2]: 0.31 µM

SMILES: Cc1ccc(C(=O)N/N=C(/CC(=O)c2cccs2)C(F)(F)F)cc1
- IC90 [2]: 2.83 µM
- IC50 [2]: 1.33 µM

SMILES: Cc1[nH]c2ccccc2c1C(=O)COC(=O)c1ccc([N+](=O)[O-])s1
- IC90 [2]: 5.21 µM
- IC50 [2]: 2.53 µM

SMILES: CC1CCN(C(=O)C2CCN(c3nnc(-n4cccc4)s3)CC2)CC1
- IC90 [2]: 7.33 µM
- IC50 [2]: 3.2 µM

SMILES: Cc1cc(=O)[nH]c(=S)[nH]1
- inhibition [1]: -3.23% (inactive)

SMILES: Nc1c(C(=O)NC2CCCCC2)nsc1C(=O)OCC(=O)NC1CCCCC1
- IC90 [2]: 8.13 µM
- IC50 [2]: 4.25 µM

SMILES: Cc1ccc(NC(=O)CSc2nc3ccccc3c(=O)[nH]2)cc1Cl
- inhibition [1]: 7.6% (inactive)

SMILES: COC(=O)C(Nc1nc(SCC(=O)NC2CCCCC2)nc2ccccc12)c1ccccc1 (stereo not drawn)
- inhibition [1]: 5.93% (inactive)
